Test results published in patent US10738056B2 (Aduro BioTech, Inc., priority 2017, dated 2020).
Like-named read-outs stand apart in the source and are kept apart here.

How the values were obtained:
[1] = target: Human cGAS amino acids 155-522 (Homo sapiens (Human), UniProt Q8N884); test: cGAS biochemical activity assay (ATP remaining, Kinase-Glo Max luminescence); conditions: human cGAS 155-522, ATP remaining (Kinase-Glo Max); read-out: cGAS IC50
[2] = tested on: cGAS/STING pathway in THP1 cells; test: THP1 cell-based cGAS/STING pathway activity assay (IRF-3-linked luciferase reporter)
In short: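 THP1 cells carrying an IRF-3-driven luciferase reporter were read across a range of compound concentrations, and IC50 values were derived from these concentration responses; the assay upper limit was 100 μM.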

Chain of Human cGAS amino acids 155-522 (Q8N884 157-522): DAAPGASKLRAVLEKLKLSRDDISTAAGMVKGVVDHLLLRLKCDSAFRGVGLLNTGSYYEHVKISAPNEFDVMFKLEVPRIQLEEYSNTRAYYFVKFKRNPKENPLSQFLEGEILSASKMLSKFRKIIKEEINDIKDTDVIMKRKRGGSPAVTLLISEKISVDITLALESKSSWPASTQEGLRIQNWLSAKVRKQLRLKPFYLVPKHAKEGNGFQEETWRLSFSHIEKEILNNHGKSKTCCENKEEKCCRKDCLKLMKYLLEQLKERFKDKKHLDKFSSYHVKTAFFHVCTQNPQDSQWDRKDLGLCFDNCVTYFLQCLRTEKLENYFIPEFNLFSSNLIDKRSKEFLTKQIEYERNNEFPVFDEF

| IC50 [1] [µM] | IC50 ([2]; Homo sapiens, THP-1) [µM] | IC50 ([2]; read-out: THP-1 IC50) [µM] | Structure (SMILES) |
| --- | --- | --- | --- |
| < 20 | > 100 |  | COc1cccc2oc(-c3c(C(=O)NCc4cc[nH]n4)[nH]c4c(-c5ccccc5)c(C(F)(F)F)nn4c3=O)nc12 [Compound C1245, N-((1H-pyrazol-3-yl)methyl)-6-(4-methoxybenzo[d]oxazol-2-yl)-7-oxo-3-phenyl-2-(trifluoromethyl)-4,7-dihydropyrazolo[1,5-a]pyrimidine-5-carboxamide] |
| < 20 | > 100 |  | COC1CCCCC1NC(=O)c1c(C)[nH]c2c(-c3ccccc3)c(C(F)(F)F)nn2c1=O (single isomer, unassigned) [Compound A1089, N-(2-methoxycyclohexyl)-5-methyl-7-oxo-3-phenyl-2-(trifluoromethyl)-4,7-dihydropyrazolo[1,5-a]pyrimidine-6-carboxamide] |
| < 20 | 20 to 100 |  | Cc1[nH]c2c(-c3ccccc3)c(C(F)(F)F)nn2c(=O)c1-c1nc2c([nH]1)CCCC2 [Compound C1017, 5-methyl-3-phenyl-6-(4,5,6,7-tetrahydro-1H-benzo[d]imidazol-2-yl)-2-(trifluoromethyl)pyrazolo[1,5-a]pyrimidin-7(4H)-one] |
| < 20 | 20 to 100 |  | Cc1[nH]c2c(-c3ccccc3)c(C(F)(F)F)nn2c(=O)c1-c1nc2ccc(N)cc2o1 [Compound C1156, 6-(6-aminobenzo[d]oxazol-2-yl)-5-methyl-3-phenyl-2-(trifluoromethyl)pyrazolo[1,5-a]pyrimidin-7(4H)-one] |
| < 20 | > 100 |  | COc1cccc2oc(-c3c(C4=CCC(C(=O)O)CC4)[nH]c4c(-c5ccccc5)c(C(F)(F)F)nn4c3=O)nc12 (centres unmarked) [Compound C1234, 4-(6-(4-methoxybenzo[d]oxazol-2-yl)-7-oxo-3-phenyl-2-(trifluoromethyl)-4,7-dihydropyrazolo[1,5-a]pyrimidin-5-yl)cyclohex-3-ene-1-carboxylic acid] |
| < 20 | 20 to 100 |  | Cc1[nH]c2c(-c3ccccc3)c(C(F)(F)F)nn2c(=O)c1C(=O)Nc1ccn(C)n1 [Compound A1029, 5-methyl-N-(1-methyl-1H-pyrazol-3-yl)-7-oxo-3-phenyl-2-(trifluoromethyl)-4,7-dihydropyrazolo[1,5-a]pyrimidine-6-carboxamide] |
| < 20 | > 100 |  | Cc1[nH]c2c(-c3ccccc3)c(C#N)nn2c(=O)c1-c1nc2cc(N)ccc2o1 [Compound C1181, 6-(5-aminobenzo[d]oxazol-2-yl)-5-methyl-7-oxo-3-phenyl-4,7-dihydropyrazolo[1,5-a]pyrimidine-2-carbonitrile] |
| 20 to 250 | > 100 |  | Cc1nnc(-c2c(C)[nH]c3c(-c4ccccc4)c(C(F)(F)F)nn3c2=O)[nH]1 [Compound C1020, 5-methyl-6-(5-methyl-4H-1,2,4-triazol-3-yl)-3-phenyl-2-(trifluoromethyl)pyrazolo[1,5-a]pyrimidin-7(4H)-one] |
| < 20 | 20 to 100 |  | COCc1nc(-c2c(C)[nH]c3c(-c4ccccc4)c(C(F)(F)F)nn3c2=O)oc1C(C)C [Compound C1153, 6-(5-isopropyl-4-(methoxymethyl)oxazol-2-yl)-5-methyl-3-phenyl-2-(trifluoromethyl)pyrazolo[1,5-a]pyrimidin-7(4H)-one] |
| < 20 | > 100 |  | Cc1[nH]c2c(-c3ccccc3)c(C(F)(F)F)nn2c(=O)c1-c1nnc(C2(N)CCCC2)o1 [Compound D1062, 6-(5-(1-aminocyclopentyl)-1,3,4-oxadiazol-2-yl)-5-methyl-3-phenyl-2-(trifluoromethyl)pyrazolo[1,5-a]pyrimidin-7(4H)-one] |
| < 20 | > 100 |  | COc1cccc2oc(-c3c(C(=O)O)[nH]c4c(-c5ccccc5)c(C(F)(F)F)nn4c3=O)nc12 [Compound C1131, 6-(4-methoxybenzo[d]oxazol-2-yl)-7-oxo-3-phenyl-2-(trifluoromethyl)-4,7-dihydropyrazolo[1,5-a]pyrimidine-5-carboxylic acid] |
| < 20 | 20 to 100 |  | CC(=O)Nc1cccc2nc(-c3c(C)[nH]c4c(-c5ccccc5)c(C(F)(F)F)nn4c3=O)[nH]c12 [Compound C1009, N-(2-(5-methyl-7-oxo-3-phenyl-2-(trifluoromethyl)-4,7-dihydropyrazolo[1,5-a]pyrimidin-6-yl)-1H-benzo[d]imidazol-7-yl)acetamide] |
| < 20 | > 100 |  | CO[C@](c1ccccc1)(c1nnc(-c2c(C)[nH]c3c(-c4ccccc4)c(C(F)(F)F)nn3c2=O)o1)C(F)(F)F [Compound D1029, (R)-5-methyl-3-phenyl-6-(5-(2,2,2-trifluoro-1-methoxy-1-phenylethyl)-1,3,4-oxadiazol-2-yl)-2-(trifluoromethyl)pyrazolo[1,5-a]pyrimidin-7(4H)-one] |
| < 20 | > 100 |  | COc1cccc2nc(-c3c(C)[nH]c4c(-c5ccccc5)c(C(F)(F)F)nn4c3=O)cn12 [Compound C1057, 6-(5-methoxyimidazo[1,2-a]pyridin-2-yl)-5-methyl-3-phenyl-2-(trifluoromethyl)pyrazolo[1,5-a]pyrimidin-7(4H)-one] |
| < 20 | > 100 |  | COc1nc(N)nc2oc(-c3c(C)[nH]c4c(-c5ccccc5)c(C(F)(F)F)nn4c3=O)nc12 [Compound C1174, 6-(5-amino-7-methoxyoxazolo[5,4-d]pyrimidin-2-yl)-5-methyl-3-phenyl-2-(trifluoromethyl)pyrazolo[1,5-a]pyrimidin-7(4H)-one] |
| < 20 | < 20 |  | COCCOc1cccc2oc(-c3c(C)[nH]c4c(-c5ccccc5)c(C(F)(F)F)nn4c3=O)nc12 [Compound C1041, 6-(4-(2-methoxyethoxy)benzo[d]oxazol-2-yl)-5-methyl-3-phenyl-2-(trifluoromethyl)pyrazolo[1,5-a]pyrimidin-7(4H)-one] |
| < 20 | < 20 |  | COc1nccc2oc(-c3c(C)[nH]c4c(-c5ccccc5)c(C(F)(F)F)nn4c3=O)nc12 [Compound C1037, 6-(4-methoxyoxazolo[4,5-c]pyridin-2-yl)-5-methyl-3-phenyl-2-(trifluoromethyl)pyrazolo[1,5-a]pyrimidin-7(4H)-one] |
| < 20 | > 100 |  | COc1ccccc1NC(=O)c1c(C)[nH]c2c(-c3ccccc3)c(C(F)(F)F)nn2c1=O [Compound A1031, N-(2-methoxyphenyl)-5-methyl-7-oxo-3-phenyl-2-(trifluoromethyl)-4,7-dihydropyrazolo[1,5-a]pyrimidine-6-carboxamide] |
| < 20 | 20 to 100 |  | COc1cccc2nc(-c3c(C)[nH]c4c(-c5ccccc5)c(C(F)(F)F)nn4c3=O)[nH]c(=O)c12 [Compound C1024, 5-methoxy-2-(5-methyl-7-oxo-3-phenyl-2-(trifluoromethyl)-4,7-dihydropyrazolo[1,5-a]pyrimidin-6-yl)quinazolin-4(3H)-one] |
| < 20 | > 100 |  | Cc1[nH]c2c(-c3ccccc3)c(C(F)(F)F)nn2c(=O)c1-c1nc2c([S+](C)[O-])cccc2o1 (centres unmarked) [Compound C1097, 5-methyl-6-(4-(methylsulfinyl)benzo[d]oxazol-2-yl)-3-phenyl-2-(trifluoromethyl)pyrazolo[1,5-a]pyrimidin-7(4H)-one] |
| < 20 | > 100 |  | COc1cccc2oc(-c3c(COC4COC4)[nH]c4c(-c5ccccc5)c(C#N)nn4c3=O)nc12 [Compound C1259, 6-(4-methoxybenzo[d]oxazol-2-yl)-5-((oxetan-3-yloxy)methyl)-7-oxo-3-phenyl-4,7-dihydropyrazolo[1,5-a]pyrimidine-2-carbonitrile] |
| < 20 | 20 to 100 |  | Cc1[nH]c2c(-c3ccccc3)c(C(F)(F)F)nn2c(=O)c1C(=O)NS(=O)(=O)c1ccccc1Cl [Compound A1127, N-((2-chlorophenyl)sulfonyl)-5-methyl-7-oxo-3-phenyl-2-(trifluoromethyl)-4,7-dihydropyrazolo[1,5-a]pyrimidine-6-carboxamide] |
| < 20 | > 100 |  | COc1cccc2oc(-c3c(COCC4CNC(=O)O4)[nH]c4c(-c5ccccc5)c(C#N)nn4c3=O)nc12 (centres unmarked) [Compound C1251, 6-(4-methoxybenzo[d]oxazol-2-yl)-7-oxo-5-(((2-oxooxazolidin-5-yl)methoxy)methyl)-3-phenyl-4,7-dihydropyrazolo[1,5-a]pyrimidine-2-carbonitrile] |
| < 20 |  | > 100 | CO[C@@H]1CCCC[C@H]1c1nnc(-c2c(C)[nH]c3c(-c4ccccc4)c(C(F)(F)F)nn3c2=O)o1 [D1046 Iso-3] |
| < 20 | < 20 |  | COc1cccc2sc(-c3c(C)[nH]c4c(-c5ccccc5)c(C(F)(F)F)nn4c3=O)nc12 [Compound C1070, 6-(4-methoxybenzo[d]thiazol-2-yl)-5-methyl-3-phenyl-2-(trifluoromethyl)pyrazolo[1,5-a]pyrimidin-7(4H)-one] |
| < 20 | < 20 |  | COc1cccc2oc(-c3c(N4CCOCC4)[nH]c4c(-c5ccccc5)c(C(F)(F)F)nn4c3=O)nc12 [Compound C1258, 6-(4-methoxybenzo[d]oxazol-2-yl)-5-morpholino-3-phenyl-2-(trifluoromethyl)pyrazolo[1,5-a]pyrimidin-7(4H)-one] |
| < 20 | 20 to 100 |  | CCOC(=O)c1coc(-c2c(C)[nH]c3c(-c4ccccc4)c(C(F)(F)F)nn3c2=O)n1 [Compound C1101, ethyl 2-(5-methyl-7-oxo-3-phenyl-2-(trifluoromethyl)-4,7-dihydropyrazolo[1,5-a]pyrimidin-6-yl)oxazole-4-carboxylate] |
| < 20 | > 100 |  | COc1cc(CO)cc2oc(-c3c(C)[nH]c4c(-c5ccccc5)c(C#N)nn4c3=O)nc12 [Compound C1203, 6-(6-(hydroxymethyl)-4-methoxybenzo[d]oxazol-2-yl)-5-methyl-7-oxo-3-phenyl-4,7-dihydropyrazolo[1,5-a]pyrimidine-2-carbonitrile] |
